From patent publication US20100234390A1, “NOVEL COMPOUND AND THEIR USE” (priority 2007, published 2010)

Key:
Test in all cases: Agar dilution MIC
Settings in all cases: 35° C., 16-20 hours
[1] = system: M. catarrhalis ATCC 43617; format: cell-based, Moraxella catarrhalis
Procedure, shortened: (§1)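 Compounds were serially diluted two-fold in DMSO and mixed into molten Mueller Hinton agar, one concentration per plate. Plates were inoculated with saline suspensions set to 0.5 McFarland (1.5×10^8 CFU/mL), then diluted 1:10 to 1.5×10^7 CFU/mL, and incubated at 35° C in ambient air for 16-20 hours.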

[2] = system: M. catarrhalis ATCC 43627; format: cell-based, Moraxella catarrhalis
Procedure, shortened: as §1

[3] = system: M. catarrhalis ATCC 43628; format: cell-based, Moraxella catarrhalis
Procedure, shortened: as §1

E. faecium MRO 04037 = format: cell-based, Enterococcus faecium
Procedure, shortened: as §1

E. faecium MRO 04038 = format: cell-based, Enterococcus faecium
Procedure, shortened: as §1

E. faecium ATCC 700221 = format: cell-based, Enterococcus faecium
Procedure, shortened: as §1

E. faecium MRO 04198 = format: cell-based, Enterococcus faecium
Procedure, shortened: as §1

E. faecalis MRO 04035 = format: cell-based, Enterococcus faecalis
Procedure, shortened: as §1

E. faecalis ATCC 51299 = format: cell-based, Enterococcus faecalis
Procedure, shortened: as §1

E. faecalis ATCC 29212 = format: cell-based, Enterococcus faecalis
Procedure, shortened: as §1

E. faecalis MRO 04205 = format: cell-based, Enterococcus faecalis
Procedure, shortened: as §1

E. faecalis MRO 04050 = format: cell-based, Enterococcus faecalis
Procedure, shortened: as §1

[4] = system: S. epidermidis MRO 002046; format: cell-based
Procedure, shortened: as §1

S. epidermidis MRO 02045 = format: cell-based
Procedure, shortened: as §1

[5] = system: S. haemolyticus MRO 02064; format: cell-based
Procedure, shortened: as §1

S. epidermidis MRO 02095 = format: cell-based
Procedure, shortened: as §1

[6] = system: S. saprophyticus MRO 02003; format: cell-based
Procedure, shortened: as §1

S. epidermidis MRO 02002 = format: cell-based
Procedure, shortened: as §1

S. aureus MRO 0003 = format: cell-based, Staphylococcus aureus
Procedure, shortened: as §1

S. aureus MRO 00013 = format: cell-based, Staphylococcus aureus
Procedure, shortened: as §1

S. aureus MRO 002053 = format: cell-based, Staphylococcus aureus
Procedure, shortened: as §1

S. aureus MRO 00055 = format: cell-based, Staphylococcus aureus
Procedure, shortened: as §1

S. aureus ATCC 29213 = format: cell-based, Staphylococcus aureus
Procedure, shortened: as §1

S. aureus MRO 00030 = format: cell-based, Staphylococcus aureus
Procedure, shortened: as §1

S. aureus ATCC 43300 = format: cell-based, Staphylococcus aureus
Procedure, shortened: as §1

S. aureus MRO 00048 = format: cell-based, Staphylococcus aureus
Procedure, shortened: as §1

S. aureus MRO 0001 = format: cell-based, Staphylococcus aureus
Procedure, shortened: as §1

S. aureus MRO 00059 = format: cell-based, Staphylococcus aureus
Procedure, shortened: as §1

Row | Compound | Antimicrobial Screening (MIC) [1] [µg/mL] | Antimicrobial Screening (MIC) [2] [µg/mL] | Antimicrobial Screening (MIC) [3] [µg/mL] | Antimicrobial Screening (MIC) (E. faecium MRO 04037) [µg/mL] | Antimicrobial Screening (MIC) (E. faecium MRO 04038) [µg/mL] | Antimicrobial Screening (MIC) (E. faecium ATCC 700221) [µg/mL] | Antimicrobial Screening (MIC) (E. faecium MRO 04198) [µg/mL] | Antimicrobial Screening (MIC) (E. faecalis MRO 04035) [µg/mL] | Antimicrobial Screening (MIC) (E. faecalis ATCC 51299) [µg/mL] | Antimicrobial Screening (MIC) (E. faecalis ATCC 29212) [µg/mL] | Antimicrobial Screening (MIC) (E. faecalis MRO 04205) [µg/mL] | Antimicrobial Screening (MIC) (E. faecalis MRO 04050) [µg/mL] | Antimicrobial Screening (MIC) [4] [µg/mL] | Antimicrobial Screening (MIC) (S. epidermidis MRO 02045) [µg/mL] | Antimicrobial Screening (MIC) [5] [µg/mL] | Antimicrobial Screening (MIC) (S. epidermidis MRO 02095) [µg/mL] | Antimicrobial Screening (MIC) [6] [µg/mL] | Antimicrobial Screening (MIC) (S. epidermidis MRO 02002) [µg/mL] | Antimicrobial Screening (MIC) (S. aureus MRO 0003) [µg/mL] | Antimicrobial Screening (MIC) (S. aureus MRO 00013) [µg/mL] | further results
1 | COC(=S)NC[C@H]1CN(c2ccc(N3CCN(C(=O)c4ccno4)CC3)c(F)c2)C(=O)O1 [Example 44, (S)—O-M ethyl(3-(3-fluoro-4-(4-(isoxazole-5-carbonyl)piperazin-1-yl)phenyl)-2-oxooxazolidin-5-yl)methylcarbamothioate] | 1 | 2 | 1 | 0.25 | 0.25 | 0.25 | 0.25 | 0.25 | 0.25 | 0.25 | 0.25 | 0.5 | 0.25 | 0.5 | 0.25 | 0.25 | 0.5 | 0.5 | 0.5 | 0.5 | Antimicrobial Screening (MIC) (S. aureus MRO 002053): 0.5 µg/mL; Antimicrobial Screening (MIC) (S. aureus MRO 00055): 0.5 µg/mL; Antimicrobial Screening (MIC) (S. aureus ATCC 29213): 0.5 µg/mL; Antimicrobial Screening (MIC) (S. aureus MRO 00030): 0.5 µg/mL; Antimicrobial Screening (MIC) (S. aureus ATCC 43300): 0.5 µg/mL; Antimicrobial Screening (MIC) (S. aureus MRO 00048): 0.25 µg/mL; Antimicrobial Screening (MIC) (S. aureus MRO 0001): 0.5 µg/mL; Antimicrobial Screening (MIC) (S. aureus MRO 00059): 0.5 µg/mL
2 | COC(=S)NC[C@H]1CN(c2ccc(N3CCN(C(=O)c4cccnc4)CC3)c(F)c2)C(=O)O1 [Example 2, (S)—O-Methyl(3-(3-fluoro-4-(4-nicotinoylpiperazin-1-yl)phenyl)-2-oxooxazolidin-5-yl)methylcarbamothioate] | 1 | 4 | 4 | 0.5 | 0.5 | 0.5 | 0.5 | 0.5 | 0.5 | 1 | 0.5 | 1 | 1 | 1 | 1 | 1 | 1 | 1 | 1 | 1 | Antimicrobial Screening (MIC) (S. aureus MRO 002053): 1 µg/mL; Antimicrobial Screening (MIC) (S. aureus MRO 00055): 1 µg/mL; Antimicrobial Screening (MIC) (S. aureus ATCC 29213): 1 µg/mL; Antimicrobial Screening (MIC) (S. aureus MRO 00030): 1 µg/mL; Antimicrobial Screening (MIC) (S. aureus ATCC 43300): 1 µg/mL; Antimicrobial Screening (MIC) (S. aureus MRO 00048): 0.5 µg/mL; Antimicrobial Screening (MIC) (S. aureus MRO 0001): 0.5 µg/mL; Antimicrobial Screening (MIC) (S. aureus MRO 00059): 1 µg/mL
